{"source": "patent US20230181542A1", "about": "“METHOD AND PHARMACEUTICAL COMPOSITION FOR TREATING CHRONIC KIDNEY DISEASE” (Chengdu WenDing Technology Development Co., Ltd., priority 2020, published 2023)", "key": {"[1]": {"conditions": "marketed drug, known side effects; cited from earlier work"}, "[2]": {"test_system": "rhesus monkeys with spontaneous chronic diabetic kidney disease", "assay": "Proteinuria (UACR, urinary Malb and Cr-U), 4 to 6 hour urine collection", "type": "in vivo, Macaca mulatta (Rhesus Macaque)", "conditions": "for UACR: Valsartan group 2.67 mg/kg oral, individual animals and Mean ± SD (baseline 61 ± 33); for UACR change rate / UACR decreased by an average of (compared with the baseline) / Malb / Cr-U: Valsartan group; for UACR change rate: individual animals and Mean ± SD, negative = decrease; for Malb: individual animals and Mean ± SD (baseline 76.1 ± 114.7); for Cr-U: individual animals and Mean ± SD (baseline 90.9 ± 108.5)", "protocol": "The details of the dosing regime of each group are described below, wherein the route of administration was oral administration. The baseline period was 1 month, followed by continuous oral administration for 58 days. […] Urinary albumin excretion rate (UACR): 4 h to 6 hours urine was collected and detected for urinary microalbumin (Malb) and urinary creatinine (Cr-U), followed by calculation of UACR value. Detection was performed one time before administration, and at designated times (such as once at D30 and once at […]) after administration. UACR=Malb/Cr-U. Urine sample collection method: Animals were fasted overnight before the operation of collecting urine. On the day of operation, animals were transferred to a metabolic cage, followed by collecting all urine excreted within 4 to 6 hours into a urine collection bag. Detection method: see Tables 3-2 and 3-3 Effects on urinary albumin excretion rate (UACR) are shown in FIG. 1, FIG. 2 and Table 4-1. […]"}, "[3]": {"test_system": "rhesus monkeys with spontaneous chronic diabetic kidney disease", "assay": "Renal function markers CysC, Cr-P and BUN in blood", "type": "in vivo, Macaca mulatta (Rhesus Macaque)", "conditions": "Valsartan group; for CysC: Mean ± SD (baseline 1.57 ± 0.10)", "protocol": "The details of the dosing regime of each group are described below, wherein the route of administration was oral administration. The baseline period was 1 month, followed by continuous oral administration for 58 days. Glomerular filtration rate eGFR: creatinine (Cr-P), blood urea nitrogen (BUN), cystatin (CysC) were detected to calculate the eGFR value. Detections were performed once in the baseline period before administration, and at designated times (such as D14, D28, […], and […], etc.) after administration. In accordance with reference literature (Levey A S, Stevens L A, Schmid C H et al. A new equation to estimate glomerular filtration rate. Ann Intern Med 2009; 150:604-612), the formula for calculating eGFR was as follows: Blood sample collection method: Before the blood collection operation, an animal was fasted overnight without anesthesia. After the animals were acclimatized, the backboard was gently squeezed to restrain the animal, and blood was collected through the forearm vein. After collection, sterilized dry cotton ball was used to gently press the blood collection site to stop bleeding. [table] CysC is an endogenous marker that reflects changes in glomerular filtration rate. Cr-P has been used as the main index of renal function for more than 40 years. In this test, glomerular filtration rate eGFR is calculate by measuring CysC and Cr-P. Although BUN was first used as an evaluation index of renal function, it could not meet the requirements of endogenous GFR markers and was only used as an auxiliary index in this test."}, "[4]": {"test_system": "rhesus monkeys with spontaneous chronic diabetic kidney disease", "assay": "Blood pressure (SBP/DBP) after anesthesia", "type": "in vivo, Macaca mulatta (Rhesus Macaque)", "conditions": "Valsartan group", "protocol": "(§1) The details of the dosing regime of each group are described below, wherein the route of administration was oral administration. The baseline period was 1 month, followed by continuous oral administration for 58 days.\nBlood pressure: blood pressure was detected after anesthesia, including systolic blood pressure (SBP), diastolic blood pressure (DBP), mean blood pressure (MBP) and heart rate (HR). Detection was carried out 1 time before administration and 1 time at D58 (end of administration).\nDetection method: Animals were anesthetized by intramuscular injection of 15 mg/kg ketamine hydrochloride and then placed in a supine position, followed by being tied with a cuff of appropriate size according to the corresponding standard. A blood oxygen probe was clamped on a finger or toe (except the left hand) of the animal, with the red photosensitive surface on the side of the finger pad. The blood pressure of the animal was continuously detected 3 times in automatic mode with an interval of 1 minute. If the differences in the SBP, DBP and MBP of the three times were less than 15 mmHg, the measurement completed, otherwise the measurement repeated.\nDetection indicators: systolic blood pressure (SBP), diastolic blood pressure (DBP), mean blood pressure (MBP) and heart rate (HR).\nInstrument: GE B40i electrophysiological monitor."}, "[5]": {"test_system": "rhesus monkeys with spontaneous chronic diabetic kidney disease", "assay": "Glomerular filtration rate eGFR calculated from Cr-P and CysC", "type": "in vivo, Macaca mulatta (Rhesus Macaque)", "conditions": "for eGFR change value: animals with eGFR 30 to 59, DOX+PMP+MTP groups 1# and 2# combined n = 5, Valsartan n = 3, Mean ± SD; for eGFR: Valsartan group, Mean ± SD (baseline 50 ± 7)", "protocol": "as §1\nGlomerular filtration rate eGFR: creatinine (Cr-P), blood urea nitrogen (BUN), cystatin (CysC) were detected to calculate the eGFR value. Detections were performed once in the baseline period before administration, and at designated times (such as D14, D28, D45, and D58, etc.) after administration. In accordance with reference literature (Levey A S, Stevens L A, Schmid C H et al. A new equation to estimate glomerular filtration rate. Ann Intern Med 2009; 150:604-612), the formula for calculating eGFR was as follows: […]\nBlood sample collection method: Before the blood collection operation, an animal was fasted overnight without anesthesia. After the animals were acclimatized, the backboard was gently squeezed to restrain the animal, and blood was collected through the forearm vein. After collection, sterilized dry cotton ball was used to gently press the blood collection site to stop bleeding.\nResults of eGFR are shown in FIG. 3, Table 4-2 and Table 4-3. eGFR values of 30 to 59 ml/min/1.73m^2 were selected and included to analyze the changes of glomerular filtration rate."}}, "note": "Several values for one entry are separate records, joined by “and”; a condition that tells them apart may be missing. Equal values may be shown once.", "data": [{"molecule": "CCCN[C@H]1CCc2nc(N)sc2C1", "note": "[PMP, (S)-N6-propyl-4,5,6,7-tetrahydro-1,3-benzothiazole-2,6-diamine]", "values": [{"measurement": "daily dose at which the incidence of somnolence increases", "setting": "[1]", "result": "above 1.5 mg"}]}, {"molecule": "CCCCC(=O)N(Cc1ccc(-c2ccccc2-c2nnn[nH]2)cc1)[C@H](C(=O)O)C(C)C", "note": "[Valsartan]", "values": [{"measurement": "UACR", "setting": "[2]; D 30", "result": "59 mg/g and 84 mg/g and 20 mg/g and 21 mg/g and 46 ± 31 mg/g"}, {"measurement": "UACR", "setting": "[2]; D 58", "result": "38 mg/g and 64 mg/g and 19 mg/g and 22 mg/g and 36 ± 20 mg/g"}, {"measurement": "UACR change rate", "setting": "[2]; Baseline-D 30", "result": "−27.11% and −14.25% and −33.78% and −42.53% and −29.41 ± 11.92%"}, {"measurement": "UACR change rate", "setting": "[2]; Baseline-D 58", "result": "−52.26% and −34.73% (2×) and −41.10% and −40.71 ± 8.27%"}, {"measurement": "UACR decreased by an average of (compared with the baseline)", "setting": "[2]; D30", "result": "about 30%"}, {"measurement": "Malb", "setting": "[2]; D 30", "result": "51.3 mg/L and 199.8 mg/L and 13.4 mg/L and 5.9 mg/L and 67.6 ± 90.3 mg/L"}, {"measurement": "Cr-U", "setting": "[2]; D 30", "result": "87.5 mg/dL and 238.1 mg/dL and 68.3 mg/dL and 27.5 mg/dL and 105.3 ± 92.0 mg/dL"}, {"measurement": "Malb", "setting": "[2]; D 58", "result": "54.9 mg/L and 206.7 mg/L and 39.9 mg/L and 6.2 mg/L and 76.9 ± 88.9 mg/L"}, {"measurement": "Cr-U", "setting": "[2]; D 58", "result": "143.0 mg/dL and 323.6 mg/dL and 206.3 mg/dL and 28.2 mg/dL and 175.3 ± 123.4 mg/dL"}, {"measurement": "UACR decreased by an average of (compared with the baseline)", "setting": "[2]; D58, p<0.01 vs placebo", "result": "40.71±8.27", "unit": "%"}, {"measurement": "CR-P", "setting": "[3]; D 14 (baseline 1.46 ± 0.29)", "result": "1.26 ± 0.24", "unit": "mg/dL"}, {"measurement": "BUN", "setting": "[3]; D 14 (baseline 41.9 ± 34.2)", "result": "27.1 ± 6.0", "unit": "mg/dL"}, {"measurement": "CysC", "setting": "[3]; D 14", "result": "1.59 ± 0.10", "unit": "mg/L"}, {"measurement": "CR-P", "setting": "[3]; D 28 (baseline 1.46 ± 0.29)", "result": "1.18 ± 0.13", "unit": "mg/dL"}, {"measurement": "BUN", "setting": "[3]; D 28 (baseline 41.9 ± 34.2)", "result": "35.0 ± 16.6", "unit": "mg/dL"}, {"measurement": "CysC", "setting": "[3]; D 28", "result": "1.53 ± 0.08", "unit": "mg/L"}, {"measurement": "CR-P", "setting": "[3]; D 45 (baseline 1.46 ± 0.29)", "result": "1.18 ± 0.12", "unit": "mg/dL"}, {"measurement": "BUN", "setting": "[3]; D 45 (baseline 41.9 ± 34.2)", "result": "37.9 ± 19.2", "unit": "mg/dL"}, {"measurement": "CysC", "setting": "[3]; D 45", "result": "1.56 ± 0.09", "unit": "mg/L"}, {"measurement": "CR-P", "setting": "[3]; D 58 (baseline 1.46 ± 0.29)", "result": "1.10 ± 0.08", "unit": "mg/dL"}, {"measurement": "BUN", "setting": "[3]; D 58 (baseline 41.9 ± 34.2)", "result": "31.6 ± 11.3", "unit": "mg/dL"}, {"measurement": "CysC", "setting": "[3]; D 58", "result": "1.48 ± 0.11", "unit": "mg/L"}, {"measurement": "DBP", "setting": "[4]; D 58, Mean ± SD (baseline 71 ± 15)", "result": "63 ± 11", "unit": "mmHg"}, {"measurement": "SBP", "setting": "[4]; D 58, Mean ± SD (baseline 135 ± 16)", "result": "123 ± 12", "unit": "mmHg"}, {"measurement": "DBP decreased by an average of (compared with the baseline)", "setting": "[4]; D58, p<0.01 vs placebo", "result": "8±6", "unit": "mmHg"}, {"measurement": "SBP decreased by an average of (compared with the baseline)", "setting": "[4]; D58, p<0.05 vs placebo", "result": "13±6", "unit": "mmHg"}, {"measurement": "DBP change value", "setting": "[4]; D 58 vs baseline, Mean ± SD", "result": "−8 ± 5", "unit": "mmHg"}, {"measurement": "SBP change value", "setting": "[4]; D 58 vs baseline, Mean ± SD", "result": "−13 ± 6", "unit": "mmHg"}, {"measurement": "eGFR change value", "setting": "[5]; D 14 minus baseline", "result": "3 ± 2", "unit": "ml/min/1.73 m^2"}, {"measurement": "eGFR change value", "setting": "[5]; D 28 minus baseline", "result": "6 ± 7", "unit": "ml/min/1.73 m^2"}, {"measurement": "eGFR change value", "setting": "[5]; D 45 minus baseline", "result": "5 ± 6", "unit": "ml/min/1.73 m^2"}, {"measurement": "eGFR change value", "setting": "[5]; D 58 minus baseline", "result": "10±7", "unit": "ml/min/1.73 m^2"}, {"measurement": "eGFR", "setting": "[5]; D 14", "result": "53 ± 7", "unit": "ml/min/1.73 m^2"}, {"measurement": "eGFR", "setting": "[5]; D 28", "result": "56 ± 2", "unit": "ml/min/1.73 m^2"}, {"measurement": "eGFR", "setting": "[5]; D 45", "result": "55 ± 1", "unit": "ml/min/1.73 m^2"}, {"measurement": "eGFR", "setting": "[5]; D 58", "result": "60 ± 1", "unit": "ml/min/1.73 m^2"}]}]}
